Data as given in patent publication US20260365672A1, “K-RAS MUTANT PROTEIN INHIBITORS” (Jacobio Pharmaceuticals Co., Ltd., priority 2022, published 2026).

Molecular target: T1, GDP-KRAS G12V (Homo sapiens, UniProt P01116, G12V)
T1 construct: GDP-loaded HIS-KRAS(G12V, aa 1-169)
Test: SOS1 catalyzed nucleotide exchange assay (TR-FRET)
Format: biochemical
Conditions: GDP-loaded HIS-KRAS(G12V, aa 1-169) 10-15 nM; 0.5 μM SOS1 ExD; 80 nM BODIPY FL GTP; 15 min pre-incubation, 4 hours at 25 °C
Protocol: GDP-loaded HIS-KRAS(G12V, aa 1-169) was pre-incubated with a compound in the presence of 10 nM GDP in a 384-well plate (Greiner) for 15 min, then purified SOS1 ExD (Flag tag, aa 564-1049), BODIPY™ FL GTP (Invitrogen) and MAb (monoclonal antibody) Anti 6HIS-Tb cryptate Gold (Cisbio) were added to the assay wells (Final concentration: 10-15 nM GDP-loaded HIS-KRAS(G12V), 5 nM GDP, 0.5 μM SOS1 ExD, 80 nM BODIPY™ FL GTP, 52.5 ng/mL MAb Anti 6HIS-Tb cryptate Gold) and incubated for 4 hours at 25 °C. Wells containing same percent of DMSO served as vehicle control, and wells without KRAS served as low control. TR-FRET signals were read on Tecan Spark multimode microplate reader. The parameters were F486: Excitation 340 nm, Emission 486 nm, Lag time 100 μs, Integration time 200 μs; F520: Excitation 340 nm, Emission 520 nm, Lag time 100 μs, Integration time 200 μs. TR-FRET ratios for each individual wells were calculated by equation: TR-FRET ratio=(Signal F520/Signal F486)*10000. The percent of activation of compounds treated wells were normalized between vehicle control and low control (% Activation=(TR-FRET ratioCompound treated−TR-FRET ratioLow control)/(TR-FRET ratioVehicle control−TR-FRET ratioLow control)*100%). Then the data were analyzed either by fitting a 4-parameter logistic model or by Excel to calculate IC50 values.

T1 sequence (P01116 1-169 isoform P01116-2 G12V): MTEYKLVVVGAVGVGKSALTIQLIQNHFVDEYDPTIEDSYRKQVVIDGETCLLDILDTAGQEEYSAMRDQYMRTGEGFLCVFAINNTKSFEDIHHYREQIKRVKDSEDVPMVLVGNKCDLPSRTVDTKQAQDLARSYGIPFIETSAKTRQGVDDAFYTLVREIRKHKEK

Point of comparison: `C#Cc1c(F)ccc2cc(O)cc(-c3nc4c5c(nc(OC[C@@]67CCCN6C[C@H](F)C7)nc5c3F)N(C)C3CC3N4C)c12` (mixture of isomers) [Compound 2], IC50 26.4 nM. Against it:
- C#Cc1c(F)ccc2cc(O)cc(-c3nc4c5c(nc(OC[C@@]67CCCN6C[C@H](F)C7)nc5c3F)N(C)[C@H]3COC[C@H]3N4)c12 [Compound 4] — 20-fold lower, 1.35 nM
- C#Cc1c(F)ccc2cc(O)cc(-c3nc4c5c(nc(OC[C@@]67CCCN6C[C@H](F)C7)nc5c3F)N(C)C3COCC3N4C)c12 (mixture of isomers) [Compound 3] — 35-fold lower, 0.757 nM
- C#Cc1c(F)ccc2cc(N)cc(-c3nc4c5c(nc(OCC67CCCN6CC(F)C7)nc5c3F)N(C)C3COCC3N4C)c12 (centres unmarked) [Compound 5] — 4.7-fold lower, 5.58 nM
- C#Cc1c(F)ccc2cc(O)cc(-c3nc4c5c(nc(OCC67CCCN6CC(F)C7)nc5c3F)N(C)C3CCCC3N4C)c12 (centres unmarked) [Compound 1] — 6-fold lower, 4.38 nM
